Measurements as given in patent US8927500B2, “Peptidomimetic macrocycles” (Aileron Therapeutics, Inc., priority 2012, dated 2015).
Where a SMILES comes first, the peptide text is derived from it. Bridges are numbered along the chain shown (N, C = ends). [ ]: non-standard residue; d: D form. R8 = C=CCCCCCC[C@@](C)(N)C(=O)O; Cha = N[C@@H](CC1CCCCC1)C(=O)O; Chg = N[C@H](C(=O)O)C1CCCCC1; hLeu = CC(C)CC[C@H](N)C(=O)O; S5 = C=CCCC[C@](C)(N)C(=O)O; Nle = CCCC[C@H](N)C(=O)O; Ac3c = NC1(C(=O)O)CC1; Aib = CC(C)(N)C(=O)O

What was measured:
MDM2 = MDM2 (Homo sapiens, UniProt Q00987); assay: Competitive fluorescence polarization assay for MDM2; type: binding; conditions: competitive FP assay, MDM2; for IC50: read-out: IC50 (MDM2); for Ki: read-out: Ki (MDM2)
MDMX = target: T1, MDMX (Homo sapiens, UniProt O15151); assay: Competitive fluorescence polarization assay for MDMX; type: binding; conditions: competitive FP assay; for IC50: read-out: IC50 (MDMX); for Ki: read-out: Ki (MDMX)
T1 sequence (O15151 1-125): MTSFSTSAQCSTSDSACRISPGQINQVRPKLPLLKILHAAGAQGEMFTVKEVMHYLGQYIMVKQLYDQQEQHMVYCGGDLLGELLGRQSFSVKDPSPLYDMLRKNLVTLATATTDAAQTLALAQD

Chain of MDM2 (Q00987 1-125): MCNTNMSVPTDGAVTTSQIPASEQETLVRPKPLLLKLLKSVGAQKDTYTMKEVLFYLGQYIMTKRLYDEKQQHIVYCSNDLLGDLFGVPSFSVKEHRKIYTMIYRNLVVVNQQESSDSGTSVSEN

CSCC[C@H](NC(=O)[C@H](C)NC(=O)[C@H](CO)NC(=O)[C@]1(C)CCCC=CCCCCCC[C@@](C)(NC(=O)[C@H](Cc2ccccc2)NC(=O)[C@@H](NC(=O)[C@H](CC(C)C)NC(C)=O)[C@@H](C)O)C(=O)N[C@@H](C)C(=O)N[C@@H](Cc2ccc(O)cc2)C(=O)N[C@@H](Cc2c[nH]c3ccccc23)C(=O)N[C@@H](C)C(=O)N[C@@H](CCC(N)=O)C(=O)N[C@@H](CC(C)C)C(=O)N1)C(N)=O [compound 5] (Ac-LTF[R8]AYWAQL[S5]SAM-NH2; staple 4-11)
IC50 (MDM2): 10 to 100 nM
Ki (MDM2): < 10 nM
IC50 (MDMX): 100 to 1000 nM
Ki (MDMX): 10 to 100 nM

CCCC[C@H](NC(=O)[C@H](C)NC(=O)[C@H](C)NC(=O)[C@]1(C)CCCC=CCCCCCC[C@@](C)(NC(=O)[C@H](Cc2ccccc2)NC(C)=O)C(=O)N[C@@H](C)C(=O)N[C@@H](Cc2ccc(O)cc2)C(=O)N[C@@H](Cc2c[nH]c3ccccc23)C(=O)N[C@@H](CCC(=O)O)C(=O)NC2(CC2)C(=O)N[C@@H](CC(C)C)C(=O)N1)C(N)=O [compound 14] (Ac-F[R8]AYWE[Ac3c]L[S5]AA[Nle]-NH2; staple 2-9)
IC50 (MDM2): 10 to 100 nM
Ki (MDM2): < 10 nM
IC50 (MDMX): 10 to 100 nM
Ki (MDMX): < 10 nM

CSCC[C@H](NC(=O)[C@H](C)NC(=O)[C@H](C)NC(=O)[C@]1(C)CCCC=CCCCCCC[C@@](C)(NC(=O)[C@H](Cc2ccccc2)NC(C)=O)C(=O)N[C@@H](C)C(=O)N[C@@H](Cc2ccc(O)cc2)C(=O)N[C@@H](Cc2c[nH]c3ccccc23)C(=O)N[C@@H](CCC(=O)O)C(=O)NC2(CC2)C(=O)N[C@@H](CC(C)C)C(=O)N1)C(N)=O [compound 16] (Ac-F[R8]AYWE[Ac3c]L[S5]AAM-NH2; staple 2-9)
IC50 (MDM2): 10 to 100 nM
Ki (MDM2): < 10 nM
IC50 (MDMX): 10 to 100 nM
Ki (MDMX): 10 to 100 nM

CC(=O)N[C@@H](Cc1ccccc1)C(=O)N[C@]1(C)CCCCCCC=CCCC[C@@](C)(C(=O)N[C@@H](C)C(=O)N[C@@H](C)C(=O)N[C@@H](CCC(C)C)C(N)=O)NC(=O)[C@H](CC(C)C)NC(=O)C2(CC2)NC(=O)[C@H](CCC(=O)O)NC(=O)[C@H](Cc2c[nH]c3ccccc23)NC(=O)[C@H](Cc2ccc(O)cc2)NC(=O)[C@H](C)NC1=O [compound 17] (Ac-F[R8]AYWE[Ac3c]L[S5]AA[hLeu]-NH2; staple 2-9)
IC50 (MDM2): 10 to 100 nM
Ki (MDM2): < 10 nM
IC50 (MDMX): 10 to 100 nM
Ki (MDMX): 10 to 100 nM

CC(=O)N[C@@H](Cc1ccccc1)C(=O)N[C@]1(C)CCCCCCC=CCCC[C@@](C)(C(=O)N[C@@H](C)C(=O)N[C@@H](C)C(=O)N[C@H](C(N)=O)C2CCCCC2)NC(=O)[C@H](CC(C)C)NC(=O)C2(CC2)NC(=O)[C@H](CCC(=O)O)NC(=O)[C@H](Cc2c[nH]c3ccccc23)NC(=O)[C@H](Cc2ccc(O)cc2)NC(=O)[C@H](C)NC1=O [compound 20] (Ac-F[R8]AYWE[Ac3c]L[S5]AA[Chg]-NH2; staple 2-9)
IC50 (MDM2): 100 to 1000 nM
Ki (MDM2): 10 to 100 nM
IC50 (MDMX): 100 to 1000 nM
Ki (MDMX): 10 to 100 nM

CC(=O)N[C@@H](Cc1ccccc1)C(=O)N[C@]1(C)CCCCCCC=CCCC[C@@](C)(C(=O)N[C@@H](C)C(=O)N[C@@H](C)C(=O)N[C@@H](CC2CCCCC2)C(N)=O)NC(=O)[C@H](CC(C)C)NC(=O)C2(CC2)NC(=O)[C@H](CCC(=O)O)NC(=O)[C@H](Cc2c[nH]c3ccccc23)NC(=O)[C@H](Cc2ccc(O)cc2)NC(=O)[C@H](C)NC1=O [compound 21] (Ac-F[R8]AYWE[Ac3c]L[S5]AA[Cha]-NH2; staple 2-9)
IC50 (MDM2): 100 to 1000 nM
Ki (MDM2): 10 to 100 nM
IC50 (MDMX): 10 to 100 nM
Ki (MDMX): 10 to 100 nM

CC(=O)N[C@@H](CC(=O)O)C(=O)N[C@@H](CC(C)C)C(=O)N[C@H](C(=O)N[C@@H](Cc1ccccc1)C(=O)N[C@]1(C)CCCCCCC=CCCC[C@@](C)(C(=O)N[C@@H](CCCNC(=N)N)C(=O)N[C@@H](CCCNC(=N)N)C(=O)N[C@@H](CC(C)C)C(=O)N[C@H](C(N)=O)C(C)C)NC(=O)[C@H](CC(C)C)NC(=O)[C@H](CCC(N)=O)NC(=O)[C@H](Cc2c[nH]cn2)NC(=O)[C@H](Cc2c[nH]c3ccccc23)NC(=O)[C@H](Cc2c[nH]cn2)NC(=O)[C@H](Cc2c[nH]cn2)NC1=O)[C@@H](C)O [compound 28] (Ac-DLTF[R8]HHWHQL[S5]RRLV-NH2; staple 5-12)
IC50 (MDM2): 10 to 100 nM
Ki (MDM2): < 10 nM
IC50 (MDMX): 10 to 100 nM
Ki (MDMX): 10 to 100 nM

CC(=O)N[C@@H](Cc1ccccc1)C(=O)N[C@]1(C)CCCCCCC=CCCC[C@@](C)(C(=O)N[C@@H](CCCNC(=N)N)C(=O)N[C@@H](CCCNC(=N)N)C(=O)N[C@@H](CC(=O)O)C(=O)N[C@@H](CC2CCCCC2)C(N)=O)NC(=O)[C@H](CC(C)C)NC(=O)[C@H](CCC(N)=O)NC(=O)[C@H](Cc2c[nH]cn2)NC(=O)[C@H](Cc2c[nH]c3ccccc23)NC(=O)[C@H](Cc2c[nH]cn2)NC(=O)[C@H](Cc2c[nH]cn2)NC1=O [compound 30] (Ac-F[R8]HHWHQL[S5]RRD[Cha]-NH2; staple 2-9)
IC50 (MDM2): 100 to 1000 nM
Ki (MDM2): 10 to 100 nM
IC50 (MDMX): 100 to 1000 nM
Ki (MDMX): 10 to 100 nM

CCCC[C@H](NC(=O)[C@H](Cc1c[nH]cn1)NC(=O)[C@H](Cc1c[nH]cn1)NC(=O)[C@]1(C)CCCC=CCCCCCC[C@@](C)(NC(=O)[C@H](Cc2ccccc2)NC(C)=O)C(=O)N[C@@H](C)C(=O)N[C@@H](Cc2ccc(O)cc2)C(=O)N[C@@H](Cc2c[nH]c3ccccc23)C(=O)N[C@@H](C)C(=O)N[C@@H](CCC(N)=O)C(=O)N[C@@H](CC(C)C)C(=O)N1)C(=O)N[C@@H](CC(C)C)C(N)=O [compound 38] (Ac-F[R8]AYWAQL[S5]HH[Nle]L-NH2; staple 2-9)
IC50 (MDM2): > 1000 nM
Ki (MDM2): 100 to 1000 nM
IC50 (MDMX): 100 to 1000 nM
Ki (MDMX): 10 to 100 nM

CC(=O)N[C@@H](Cc1ccccc1)C(=O)N[C@]1(C)CCCCCCC=CCCC[C@@](C)(C(=O)N[C@@H](CCC(N)=O)C(=O)N[C@@H](Cc2c[nH]cn2)C(=O)N[C@H](C(=O)N[C@H](CC(C)C)C(N)=O)C2CCCCC2)NC(=O)[C@H](CC(C)C)NC(=O)[C@H](CCC(N)=O)NC(=O)[C@H](C(C)C)NC(=O)[C@H](Cc2c[nH]c3ccccc23)NC(=O)[C@H](Cc2ccc(O)cc2)NC(=O)[C@H](C)NC1=O [compound 40] (Ac-F[R8]AYWVQL[S5]QH[Chg][dL]-NH2; staple 2-9)
IC50 (MDM2): 100 to 1000 nM
Ki (MDM2): 100 to 1000 nM
IC50 (MDMX): 100 to 1000 nM
Ki (MDMX): 10 to 100 nM

CC(=O)N[C@@H](Cc1ccccc1)C(=O)N[C@]1(C)CCCCCCC=CCCC[C@@](C)(C(=O)N[C@@H](Cc2c[nH]cn2)C(=O)NC(C)(C)C(=O)N[C@@H](C)C(=O)N[C@H](C)C(N)=O)NC(=O)[C@H](CC(C)C)NC(=O)[C@H](CCC(N)=O)NC(=O)[C@H](Cc2ccc(O)cc2)NC(=O)[C@H](Cc2c[nH]c3ccccc23)NC(=O)[C@H](Cc2ccc(O)cc2)NC(=O)[C@H](C)NC1=O [compound 42] (Ac-F[R8]AYWYQL[S5]H[Aib]A[dA]-NH2; staple 2-9)
IC50 (MDM2): 100 to 1000 nM
Ki (MDM2): 10 to 100 nM
IC50 (MDMX): 100 to 1000 nM
Ki (MDMX): 100 to 1000 nM

CC(=O)N[C@@H](CC(C)C)C(=O)N[C@H](C(=O)N[C@@H](Cc1ccccc1)C(=O)N[C@]1(C)CCCCCCC=CCCC[C@@](C)(C(=O)N[C@@H](Cc2c[nH]cn2)C(=O)NC(C)(C)C(=O)N[C@@H](CCC(C)C)C(=O)N[C@H](C(N)=O)C(C)C)NC(=O)[C@H](CC(C)C)NC(=O)[C@H](CCC(N)=O)NC(=O)[C@H](C)NC(=O)[C@H](Cc2c[nH]c3ccccc23)NC(=O)[C@H](Cc2ccc(O)cc2)NC(=O)[C@H](C)NC1=O)[C@@H](C)O [compound 49] (Ac-LTF[R8]AYWAQL[S5]H[Aib][hLeu]V-NH2; staple 4-11)
IC50 (MDM2): 100 to 1000 nM
Ki (MDM2): 10 to 100 nM
IC50 (MDMX): 100 to 1000 nM
Ki (MDMX): 10 to 100 nM

CC(=O)N[C@@H](CC(=O)O)C(=O)N[C@@H](CC(C)C)C(=O)N[C@H](C(=O)N[C@@H](Cc1ccccc1)C(=O)N[C@]1(C)CCCCCCC=CCCC[C@@](C)(C(=O)N[C@@H](CCCNC(=N)N)C(=O)N[C@@H](CCCNC(=N)N)C(=O)N[C@@H](CC(C)C)C(=O)N[C@H](C)C(N)=O)NC(=O)[C@H](CC(C)C)NC(=O)[C@H](CCC(N)=O)NC(=O)[C@H](Cc2c[nH]cn2)NC(=O)[C@H](Cc2c[nH]c3ccccc23)NC(=O)[C@H](Cc2c[nH]cn2)NC(=O)[C@H](Cc2c[nH]cn2)NC1=O)[C@@H](C)O [compound 52] (Ac-DLTF[R8]HHWHQL[S5]RRL[dA]-NH2; staple 5-12)
IC50 (MDM2): 10 to 100 nM
Ki (MDM2): < 10 nM
IC50 (MDMX): 10 to 100 nM
Ki (MDMX): < 10 nM

CC(=O)N[C@@H](Cc1ccccc1)C(=O)N[C@]1(C)CCCCCCC=CCCC[C@@](C)(C(=O)N[C@@H](CCCNC(=N)N)C(=O)N[C@@H](CCCNC(=N)N)C(=O)N[C@@H](CC(=O)O)C(=O)N[C@@H](C)C(N)=O)NC(=O)[C@H](CC(C)C)NC(=O)[C@H](CCC(N)=O)NC(=O)[C@H](Cc2c[nH]cn2)NC(=O)[C@H](Cc2c[nH]c3ccccc23)NC(=O)[C@H](Cc2c[nH]cn2)NC(=O)[C@H](Cc2c[nH]cn2)NC1=O [compound 54] (Ac-F[R8]HHWHQL[S5]RRDA-NH2; staple 2-9)
IC50 (MDM2): 100 to 1000 nM
Ki (MDM2): 10 to 100 nM
IC50 (MDMX): 100 to 1000 nM
Ki (MDMX): 10 to 100 nM

CC(=O)N[C@@H](CCC(=O)O)C(=O)N[C@H](C(=O)N[C@@H](Cc1ccccc1)C(=O)N[C@]1(C)CCCCCCC=CCCC[C@@](C)(C(=O)N[C@@H](CO)C(=O)N[C@@H](C)C(=O)N[C@H](C)C(N)=O)NC(=O)[C@H](CC(C)C)NC(=O)[C@H](CCC(N)=O)NC(=O)[C@H](C)NC(=O)[C@H](Cc2c[nH]c3ccccc23)NC(=O)[C@H](Cc2ccc(O)cc2)NC(=O)[C@H](C(C)C)NC1=O)[C@@H](C)O [compound 124] (Ac-ETF[R8]VYWAQL[S5]SA[dA]-NH2; staple 4-11)
IC50 (MDM2): < 10 nM
Ki (MDM2): < 10 nM
IC50 (MDMX): 100 to 1000 nM
Ki (MDMX): 10 to 100 nM
